Columns and labels:
[1] = test system: TRF1 mRNA in CHA 9-3 lung cancer cells; experiment: TRF1 mRNA by qPCR; format: cell-based, mouse; conditions: 10 μM, 24 h
[2] = test system: TRF1 protein in p53−/− MEFs nuclear extracts; experiment: Western blot of nuclear TRF1 in p53−/− MEFs; format: cell-based, mouse; conditions: 10 μM
Method: Blots were incubated with the primary antibodies anti-TRF1 1:500 (home-made monoclonal Rat, CNIO; TRF-78, ABCAM, ab10579) and with anti-SMC1 1:2000 (Bethyl Laboratories #A300-055A) as loading control. For nuclear protein preparation, the Nuclear/Cytosol Fractionation Kit (K266-100, BioVision) was used according to the manufactures protocol.

[3] = test system: aggressive lung cancer in mice; design: method as in PMID 25971796; conditions: mice with aggressive lung cancer; cited from earlier work
PI3K-β (p110β/p85α) = biological target: T1, PI3K-β (p110β/p85α) (Homo sapiens, UniProt P42338); experiment: PI3K isoforms biochemical assay (HTRF), PI3K-β; conditions: read-out: PI3Kβ IC50
T1 construct: purchased Millipore #14-603
Method: (§1) PI3Kα (p110α/p85α), PI3K-δ (p110δ/p85α), and PI3K-γ (p110γ) were purchased from Invitrogen (PV4789, PV 5274, and PV4787, respectively). PI3K-β (p110β/p85α) was obtained from Millipore (#14-603). The kinase activity was measured with the commercial PI3-kinase (human) HTRF™ assay available from Millipore (#33-017), following the manufacturer recommendations. The final enzyme concentration in the assay were 100 pM for PI3K-α and PI3K-δ, 500 pM for PI3K-β, and 4 nM for PI3K-γ. […] The enzyme was preincubated with the inhibitor and with 10 μM of PIP2 for 5 min. The enzymatic reaction was started by addition of ATP at 50 times the Km. The incubation was kept at 37 °C for 60 min. Stop solution and detection mix were added sequentially to the wells and plates were incubated 3 h in the dark at 25 °C. HTRF counts were measured in an EnVision reader (Perkin Elmer) using the recommended settings. Values were normalized against the control activity included for the enzyme (100% PI3 kinase activity, without compound). These values were plotted against the inhibitor concentration and were fit to a sigmoid dose-response curve by using Activity base software from IDBS.

PI3K-γ (p110γ) = biological target: T2, PI3K-γ (p110γ) (Homo sapiens, UniProt P48736); experiment: PI3K isoforms biochemical assay (HTRF), PI3K-γ; conditions: read-out: PI3Kγ IC50
T2 construct: purchased Invitrogen PV4787
Method: as §1

T1 sequence (P42338 whole entry, canonical isoform): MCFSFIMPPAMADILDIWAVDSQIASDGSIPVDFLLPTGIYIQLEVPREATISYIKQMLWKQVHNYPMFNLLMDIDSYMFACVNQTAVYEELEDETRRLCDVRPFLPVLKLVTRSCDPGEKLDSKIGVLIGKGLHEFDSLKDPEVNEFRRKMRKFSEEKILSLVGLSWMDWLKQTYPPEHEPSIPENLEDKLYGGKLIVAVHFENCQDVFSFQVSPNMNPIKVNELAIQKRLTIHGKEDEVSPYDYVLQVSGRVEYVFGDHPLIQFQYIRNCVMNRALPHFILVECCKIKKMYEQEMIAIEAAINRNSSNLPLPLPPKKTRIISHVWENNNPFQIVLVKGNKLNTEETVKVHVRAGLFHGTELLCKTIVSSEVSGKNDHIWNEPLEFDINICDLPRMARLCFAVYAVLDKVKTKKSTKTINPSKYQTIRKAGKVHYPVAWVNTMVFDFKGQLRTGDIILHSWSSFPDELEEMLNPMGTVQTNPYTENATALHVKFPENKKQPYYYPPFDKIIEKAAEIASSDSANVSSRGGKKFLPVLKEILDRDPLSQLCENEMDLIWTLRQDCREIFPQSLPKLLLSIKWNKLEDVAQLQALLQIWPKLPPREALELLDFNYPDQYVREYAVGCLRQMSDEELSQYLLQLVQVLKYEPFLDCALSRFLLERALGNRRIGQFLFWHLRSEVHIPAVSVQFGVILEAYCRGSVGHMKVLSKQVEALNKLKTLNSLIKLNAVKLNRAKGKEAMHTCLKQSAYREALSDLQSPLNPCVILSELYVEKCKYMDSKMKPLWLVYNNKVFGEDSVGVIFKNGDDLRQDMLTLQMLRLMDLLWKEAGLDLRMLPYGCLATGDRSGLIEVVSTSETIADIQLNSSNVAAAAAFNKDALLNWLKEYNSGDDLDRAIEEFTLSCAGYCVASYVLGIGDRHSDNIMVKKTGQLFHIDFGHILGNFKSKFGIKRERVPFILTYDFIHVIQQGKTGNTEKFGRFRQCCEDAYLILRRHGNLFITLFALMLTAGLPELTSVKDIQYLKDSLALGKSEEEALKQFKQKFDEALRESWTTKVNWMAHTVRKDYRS
T1 sequence (P27986 whole entry partner, canonical isoform): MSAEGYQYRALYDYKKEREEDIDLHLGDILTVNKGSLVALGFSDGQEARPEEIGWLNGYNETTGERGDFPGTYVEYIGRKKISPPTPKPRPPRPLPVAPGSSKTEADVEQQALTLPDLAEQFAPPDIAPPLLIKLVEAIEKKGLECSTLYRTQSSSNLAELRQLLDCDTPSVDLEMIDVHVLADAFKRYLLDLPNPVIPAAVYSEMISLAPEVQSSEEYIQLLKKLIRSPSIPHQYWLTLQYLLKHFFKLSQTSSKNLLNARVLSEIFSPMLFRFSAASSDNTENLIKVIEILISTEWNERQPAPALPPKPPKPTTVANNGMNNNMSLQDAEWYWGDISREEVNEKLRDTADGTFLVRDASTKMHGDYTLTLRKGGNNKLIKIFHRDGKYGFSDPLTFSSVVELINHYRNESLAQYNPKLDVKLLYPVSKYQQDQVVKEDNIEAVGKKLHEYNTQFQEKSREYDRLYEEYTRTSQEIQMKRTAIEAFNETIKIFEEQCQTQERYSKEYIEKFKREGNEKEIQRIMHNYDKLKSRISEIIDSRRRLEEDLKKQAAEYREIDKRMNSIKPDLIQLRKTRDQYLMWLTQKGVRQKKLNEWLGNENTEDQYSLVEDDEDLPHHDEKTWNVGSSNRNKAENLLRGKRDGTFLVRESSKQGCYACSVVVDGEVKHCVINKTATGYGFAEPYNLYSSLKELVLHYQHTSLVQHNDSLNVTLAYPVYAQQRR
T2 sequence (P48736 whole entry, canonical isoform): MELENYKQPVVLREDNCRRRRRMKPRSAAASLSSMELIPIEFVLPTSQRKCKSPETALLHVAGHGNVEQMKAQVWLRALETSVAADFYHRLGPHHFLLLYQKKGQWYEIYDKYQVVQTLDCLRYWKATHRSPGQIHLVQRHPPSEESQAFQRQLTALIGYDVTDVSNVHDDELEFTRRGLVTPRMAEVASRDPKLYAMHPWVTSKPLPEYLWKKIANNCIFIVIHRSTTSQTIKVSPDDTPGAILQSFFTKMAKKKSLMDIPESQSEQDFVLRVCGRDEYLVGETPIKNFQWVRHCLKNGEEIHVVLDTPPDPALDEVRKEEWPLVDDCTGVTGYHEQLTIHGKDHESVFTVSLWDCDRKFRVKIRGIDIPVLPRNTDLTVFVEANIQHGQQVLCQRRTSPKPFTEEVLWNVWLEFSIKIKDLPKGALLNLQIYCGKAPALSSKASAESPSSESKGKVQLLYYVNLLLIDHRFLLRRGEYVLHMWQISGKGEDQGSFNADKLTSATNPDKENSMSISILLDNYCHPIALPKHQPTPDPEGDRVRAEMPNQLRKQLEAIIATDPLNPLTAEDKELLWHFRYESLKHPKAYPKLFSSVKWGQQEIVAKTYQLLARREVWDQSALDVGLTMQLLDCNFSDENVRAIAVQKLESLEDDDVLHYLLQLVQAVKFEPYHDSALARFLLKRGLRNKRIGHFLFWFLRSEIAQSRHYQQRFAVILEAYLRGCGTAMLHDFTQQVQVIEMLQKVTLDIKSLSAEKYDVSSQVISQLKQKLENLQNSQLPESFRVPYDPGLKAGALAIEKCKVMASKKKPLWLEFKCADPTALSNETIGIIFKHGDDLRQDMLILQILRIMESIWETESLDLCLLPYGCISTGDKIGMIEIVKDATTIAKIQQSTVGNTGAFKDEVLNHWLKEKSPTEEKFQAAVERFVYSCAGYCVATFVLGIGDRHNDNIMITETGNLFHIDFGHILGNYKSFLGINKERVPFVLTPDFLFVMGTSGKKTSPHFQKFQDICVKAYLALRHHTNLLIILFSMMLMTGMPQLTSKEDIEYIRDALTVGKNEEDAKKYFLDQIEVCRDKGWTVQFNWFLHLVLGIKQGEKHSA

CS(=O)(=O)N1CCN(Cc2cc3c(N4CCOCC4)nc(-c4cnc(N)nc4)cn3n2)CC1 [ETP-47037]
TRF1 mRNA levels [1]: None of the inhibitors significantly affected | Total nuclear TRF1 levels compared to DMSO [2]: decreased | Telomere TRF1 foci in vivo [3]: significantly decreased | Telomeric DNA damage in vivo [3]: induced telomeric DNA damage | Tumor growth as compared to non-treated mice [3]: blocked tumor growth | IC50 (PI3K-β (p110β/p85α)): 49.2 nM | IC50 (PI3K-γ (p110γ)): 49.1 nM

Reference: article PMC5668434, “Modulation of telomere protection by the PI3K/AKT pathway” (Nature Communications, 2017)
